Results on twelve compounds are retold here after ChEMBL document CHEMBL5465560, “Selectivity Literature for EUbOPEN Chemogenomic Library” (2024).

In experiment [1] the target is Hepatocyte growth factor-like protein (Homo sapiens) (UniProt P26927). Particulars: at 10 µM.
The target in experiment [2] is Mitogen-activated protein kinase 4 (Homo sapiens) (UniProt P31152). Particulars: at 10 µM.
Experiment [3] deals with Protein-tyrosine kinase 2-beta (Homo sapiens) (UniProt Q14289). In words: Selectivity interaction (KinomeScan (DiscoverX)) EUB0001079a PTK2B. Particulars: at 1 µM.
In experiment [4] the test system is Epidermal growth factor receptor (Homo sapiens), P00533 [UNDEFINED MUTATION]. In words: Selectivity interaction (KinomeScan (DiscoverX)) EUB0000092b EGFR. Particulars: at 10 µM.
Experiment [5] concerns the target Serine/threonine-protein kinase 25 (Homo sapiens) (UniProt O00506). In words: Selectivity interaction (KinomeScan (DiscoverX)) EUB0000092b STK25. Conditions: at 10 µM.
Experiment [6] addresses Cyclin-dependent kinase 4 (Homo sapiens, UniProt P11802). In words: Selectivity interaction (KinomeScan (DiscoverX)) EUB0001049a CDK4. Conditions: at 1 µM.
The target of experiment [7] is Tudor domain-containing protein 3 (Homo sapiens) (UniProt Q9H7E2). In words: Selectivity interaction (PWWP, WD40, and Tudor domain panel (DSLS measurements, literature)) EUB0000270b TDRD3.
Experiment [8] addresses T1, Mitogen-activated protein kinase 12 (Homo sapiens) (UniProt P53778).
T1 sequence (whole entry): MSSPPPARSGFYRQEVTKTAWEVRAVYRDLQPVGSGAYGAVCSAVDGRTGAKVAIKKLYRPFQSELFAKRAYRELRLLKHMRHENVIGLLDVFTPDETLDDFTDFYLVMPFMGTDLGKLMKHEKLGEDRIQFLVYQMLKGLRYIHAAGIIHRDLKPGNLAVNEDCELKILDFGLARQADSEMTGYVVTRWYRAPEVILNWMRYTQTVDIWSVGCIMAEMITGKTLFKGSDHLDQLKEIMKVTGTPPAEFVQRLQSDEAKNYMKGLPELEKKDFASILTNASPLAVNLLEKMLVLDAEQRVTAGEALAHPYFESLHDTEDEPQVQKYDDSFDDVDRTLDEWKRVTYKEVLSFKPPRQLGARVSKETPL
In words: Selectivity interaction (KinomeScan (DiscoverX)) EUB0000666a MAPK12. Conditions: at 10 µM.

Experiment [9] concerns Proto-oncogene tyrosine-protein kinase receptor Ret (Homo sapiens), P07949 [Y791F]. In words: (§1) Selectivity interaction (SelectScreen profiling (Invitrogen)) EUB0000607a RET. Particulars: at 2 µM.
The subject of experiment [10] is Proto-oncogene tyrosine-protein kinase receptor Ret (Homo sapiens), P07949 [V804L]. The description is as §1. Particulars: at 2 µM.
Experiment [11] deals with Proto-oncogene tyrosine-protein kinase receptor Ret (Homo sapiens, UniProt P07949). Described as §1. Particulars: at 2 µM.
Experiment [12] has as its target Serine/threonine-protein kinase SIK2 (Homo sapiens) (UniProt Q9H0K1). In words: Selectivity interaction (Kinase panel (Invitrogen)) EUB0000639a SIK2. Conditions: at 200 nM.
Experiment [13] deals with T2, Serine/threonine-protein kinase N1 (Homo sapiens, UniProt Q16512). In words: Selectivity interaction (ActivX KiNativ screen (kinase selectivity in THP-1 cell lysates)) EUB0000639a PKN1. Particulars: lysate. The class given is subcellular.
Experiment [14] deals with Ribosomal protein S6 kinase alpha-2 (Homo sapiens) (UniProt Q15349). In words: Selectivity interaction (ActivX KiNativ screen (ex vivo kinase selectivity in human PBMCs)) EUB0001619a RPS6KA2. The class given is cell-based. Conditions: PBMC, at 1 µM.
The target of experiment [15] is Ribosomal protein S6 kinase beta-2 (Homo sapiens) (UniProt Q9UBS0). In words: Selectivity interaction (Kinase panel (KiNativ target engagement assay in Jurkat cells)) EUB0001635a RPS6KB2. Type of experiment: cell-based. Conditions: Selectivity number of off-targets 0.0, Selectivity number of targets 233.0, Source Knowledge https://www.sciencedirect.com/science/article/pii/S2451945619300674?via%3Dihub, at 1 µM.

Experiment [16] addresses T2, Serine/threonine-protein kinase N1. In words: Selectivity interaction (Kinase panel (KiNativ target engagement assay in Jurkat cells)) EUB0001635a PKN1. Type of experiment: cell-based. Conditions: Selectivity number of off-targets 0.0, Selectivity number of targets 233.0, Source Knowledge https://www.sciencedirect.com/science/article/pii/S2451945619300674?via%3Dihub, at 1 µM.

Experiment [17] deals with Serine/threonine-protein kinase pim-1 (Homo sapiens, UniProt P11309). In words: Selectivity interaction (KinomeScan (DiscoverX)) EUB0000618a PIM1. Particulars: at 10 µM.
The target of experiment [18] is RAC-beta serine/threonine-protein kinase (Homo sapiens) (UniProt P31751). In words: Selectivity interaction (KinomeScan (DiscoverX)) EUB0000618a AKT2. Conditions: at 10 µM.
Chain of RAC-beta serine/threonine-protein kinase (Homo sapiens) (P31751 whole entry): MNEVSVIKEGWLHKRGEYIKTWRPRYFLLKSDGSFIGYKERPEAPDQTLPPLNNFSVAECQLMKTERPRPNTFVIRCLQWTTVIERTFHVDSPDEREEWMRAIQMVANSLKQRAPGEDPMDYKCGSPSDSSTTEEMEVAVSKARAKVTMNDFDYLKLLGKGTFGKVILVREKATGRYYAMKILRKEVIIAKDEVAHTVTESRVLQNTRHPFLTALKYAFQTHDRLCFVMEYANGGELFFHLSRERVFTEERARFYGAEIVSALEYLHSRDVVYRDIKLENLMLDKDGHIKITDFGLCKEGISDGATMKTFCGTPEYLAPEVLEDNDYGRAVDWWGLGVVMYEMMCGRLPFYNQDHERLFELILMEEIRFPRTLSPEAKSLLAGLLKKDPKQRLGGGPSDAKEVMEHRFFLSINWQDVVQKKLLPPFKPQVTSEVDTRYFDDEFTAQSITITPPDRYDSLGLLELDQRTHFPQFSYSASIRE

T2 sequence (Q16512 2-942 limits assumed): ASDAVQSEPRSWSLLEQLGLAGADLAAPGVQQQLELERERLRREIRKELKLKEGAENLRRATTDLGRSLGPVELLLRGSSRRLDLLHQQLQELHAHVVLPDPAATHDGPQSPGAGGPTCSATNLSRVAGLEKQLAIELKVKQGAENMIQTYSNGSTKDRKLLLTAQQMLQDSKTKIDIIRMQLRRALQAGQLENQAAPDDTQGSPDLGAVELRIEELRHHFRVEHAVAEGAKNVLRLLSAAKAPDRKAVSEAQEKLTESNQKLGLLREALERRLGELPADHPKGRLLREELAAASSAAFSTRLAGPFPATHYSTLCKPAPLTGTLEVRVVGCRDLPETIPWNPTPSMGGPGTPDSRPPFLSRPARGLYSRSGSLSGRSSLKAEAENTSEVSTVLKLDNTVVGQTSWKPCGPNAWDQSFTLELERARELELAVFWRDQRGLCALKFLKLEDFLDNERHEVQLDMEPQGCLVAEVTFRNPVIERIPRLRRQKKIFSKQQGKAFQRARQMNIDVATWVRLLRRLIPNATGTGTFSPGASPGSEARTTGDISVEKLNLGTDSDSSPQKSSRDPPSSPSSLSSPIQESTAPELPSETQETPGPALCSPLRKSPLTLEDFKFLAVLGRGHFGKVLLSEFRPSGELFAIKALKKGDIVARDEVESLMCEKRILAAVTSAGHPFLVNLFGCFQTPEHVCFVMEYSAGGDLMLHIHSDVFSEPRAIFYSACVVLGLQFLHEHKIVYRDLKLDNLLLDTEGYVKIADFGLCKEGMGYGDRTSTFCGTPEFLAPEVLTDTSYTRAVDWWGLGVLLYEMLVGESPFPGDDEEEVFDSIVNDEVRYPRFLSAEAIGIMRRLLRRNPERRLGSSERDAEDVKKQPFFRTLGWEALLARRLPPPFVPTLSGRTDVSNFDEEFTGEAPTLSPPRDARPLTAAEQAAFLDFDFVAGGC
Chain of Proto-oncogene tyrosine-protein kinase receptor Ret (P07949 whole entry): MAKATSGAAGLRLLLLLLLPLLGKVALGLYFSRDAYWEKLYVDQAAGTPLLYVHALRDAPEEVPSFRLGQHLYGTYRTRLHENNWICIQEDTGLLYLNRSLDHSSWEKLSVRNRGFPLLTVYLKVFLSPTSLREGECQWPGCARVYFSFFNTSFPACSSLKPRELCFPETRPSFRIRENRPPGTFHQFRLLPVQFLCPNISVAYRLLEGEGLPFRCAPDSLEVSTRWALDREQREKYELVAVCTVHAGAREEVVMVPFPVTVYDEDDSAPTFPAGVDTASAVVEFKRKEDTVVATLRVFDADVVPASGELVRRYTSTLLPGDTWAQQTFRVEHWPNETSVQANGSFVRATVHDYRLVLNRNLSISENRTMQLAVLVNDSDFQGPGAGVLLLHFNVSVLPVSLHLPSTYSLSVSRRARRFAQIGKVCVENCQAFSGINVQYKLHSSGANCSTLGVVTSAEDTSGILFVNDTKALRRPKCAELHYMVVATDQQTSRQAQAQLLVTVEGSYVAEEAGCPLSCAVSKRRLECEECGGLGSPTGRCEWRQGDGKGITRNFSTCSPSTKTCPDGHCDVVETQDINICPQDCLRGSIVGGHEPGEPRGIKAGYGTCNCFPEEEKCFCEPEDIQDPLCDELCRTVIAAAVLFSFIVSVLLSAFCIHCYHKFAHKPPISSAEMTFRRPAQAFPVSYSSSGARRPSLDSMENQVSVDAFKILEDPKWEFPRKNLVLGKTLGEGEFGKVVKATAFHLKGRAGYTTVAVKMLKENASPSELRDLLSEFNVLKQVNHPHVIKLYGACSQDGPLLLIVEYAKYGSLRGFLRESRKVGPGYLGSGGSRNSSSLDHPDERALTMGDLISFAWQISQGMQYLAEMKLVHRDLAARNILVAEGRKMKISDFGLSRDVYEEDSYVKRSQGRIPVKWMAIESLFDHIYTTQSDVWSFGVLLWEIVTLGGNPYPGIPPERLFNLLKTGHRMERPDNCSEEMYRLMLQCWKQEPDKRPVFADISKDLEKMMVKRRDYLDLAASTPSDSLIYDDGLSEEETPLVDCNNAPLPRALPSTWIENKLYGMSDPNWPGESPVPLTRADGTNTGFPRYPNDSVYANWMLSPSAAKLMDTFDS
Chain of Protein-tyrosine kinase 2-beta (Homo sapiens) (Q14289 whole entry, looked up): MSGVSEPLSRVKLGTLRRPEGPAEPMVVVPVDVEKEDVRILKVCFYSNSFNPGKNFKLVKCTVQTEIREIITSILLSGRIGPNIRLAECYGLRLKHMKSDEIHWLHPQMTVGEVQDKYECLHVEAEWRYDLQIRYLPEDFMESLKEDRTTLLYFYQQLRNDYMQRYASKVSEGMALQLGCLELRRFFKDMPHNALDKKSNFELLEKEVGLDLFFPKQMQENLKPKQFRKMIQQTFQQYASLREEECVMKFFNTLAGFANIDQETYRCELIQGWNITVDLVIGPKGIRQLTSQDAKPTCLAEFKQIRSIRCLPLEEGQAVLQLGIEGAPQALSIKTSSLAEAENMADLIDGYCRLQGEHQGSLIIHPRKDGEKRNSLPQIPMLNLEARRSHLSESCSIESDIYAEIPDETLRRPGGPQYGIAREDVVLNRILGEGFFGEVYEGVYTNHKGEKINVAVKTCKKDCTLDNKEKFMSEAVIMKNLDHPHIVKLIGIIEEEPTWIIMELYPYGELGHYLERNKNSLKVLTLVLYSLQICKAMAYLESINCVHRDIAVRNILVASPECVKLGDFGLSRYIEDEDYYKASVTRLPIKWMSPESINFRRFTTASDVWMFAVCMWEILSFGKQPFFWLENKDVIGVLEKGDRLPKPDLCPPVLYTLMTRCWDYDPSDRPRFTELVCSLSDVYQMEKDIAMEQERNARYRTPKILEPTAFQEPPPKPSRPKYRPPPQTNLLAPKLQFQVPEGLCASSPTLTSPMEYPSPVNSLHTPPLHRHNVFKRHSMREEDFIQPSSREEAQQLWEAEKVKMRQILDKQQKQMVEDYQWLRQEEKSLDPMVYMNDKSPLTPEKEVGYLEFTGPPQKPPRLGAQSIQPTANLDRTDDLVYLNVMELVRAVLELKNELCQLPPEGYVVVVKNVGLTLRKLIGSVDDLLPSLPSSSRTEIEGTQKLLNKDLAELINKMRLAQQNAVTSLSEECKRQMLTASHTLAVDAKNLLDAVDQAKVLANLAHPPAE
Chain of Proto-oncogene tyrosine-protein kinase receptor Ret (Homo sapiens), P07949 [V804L] (P07949 whole entry V804L): as the sequence (P07949 whole entry) above, with V804L counted along it
Chain of Ribosomal protein S6 kinase beta-2 (Homo sapiens) (Q9UBS0 whole entry): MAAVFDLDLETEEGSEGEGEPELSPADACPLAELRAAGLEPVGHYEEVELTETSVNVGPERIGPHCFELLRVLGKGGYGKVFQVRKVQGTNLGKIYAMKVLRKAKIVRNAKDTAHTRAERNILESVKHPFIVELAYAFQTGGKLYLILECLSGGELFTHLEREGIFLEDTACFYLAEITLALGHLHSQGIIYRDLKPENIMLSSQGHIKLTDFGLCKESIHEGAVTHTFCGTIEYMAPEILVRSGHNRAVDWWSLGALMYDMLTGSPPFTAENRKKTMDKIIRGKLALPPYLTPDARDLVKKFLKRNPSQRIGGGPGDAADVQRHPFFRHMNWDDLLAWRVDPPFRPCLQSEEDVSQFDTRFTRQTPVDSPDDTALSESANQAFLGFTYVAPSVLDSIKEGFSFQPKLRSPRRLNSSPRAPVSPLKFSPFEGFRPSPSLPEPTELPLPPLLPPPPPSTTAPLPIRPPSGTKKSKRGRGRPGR
Chain of Tudor domain-containing protein 3 (Homo sapiens) (Q9H7E2 whole entry, the tested form may be a part): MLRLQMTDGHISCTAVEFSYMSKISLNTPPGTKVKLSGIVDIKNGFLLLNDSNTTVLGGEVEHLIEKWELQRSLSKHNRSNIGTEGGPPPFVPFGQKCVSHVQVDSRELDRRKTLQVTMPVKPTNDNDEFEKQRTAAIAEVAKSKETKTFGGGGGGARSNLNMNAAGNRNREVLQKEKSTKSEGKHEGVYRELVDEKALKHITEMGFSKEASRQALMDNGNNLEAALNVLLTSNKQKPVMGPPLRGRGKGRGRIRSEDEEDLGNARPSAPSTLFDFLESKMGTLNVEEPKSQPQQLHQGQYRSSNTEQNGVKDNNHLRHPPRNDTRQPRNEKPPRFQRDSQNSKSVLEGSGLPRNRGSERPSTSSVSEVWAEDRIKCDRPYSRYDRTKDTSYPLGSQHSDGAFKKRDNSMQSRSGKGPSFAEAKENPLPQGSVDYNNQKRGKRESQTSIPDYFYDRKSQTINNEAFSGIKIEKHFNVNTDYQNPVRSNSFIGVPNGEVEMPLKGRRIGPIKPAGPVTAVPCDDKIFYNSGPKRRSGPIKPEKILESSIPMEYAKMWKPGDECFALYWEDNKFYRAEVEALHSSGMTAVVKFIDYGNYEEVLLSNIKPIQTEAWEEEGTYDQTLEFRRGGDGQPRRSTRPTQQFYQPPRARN
Chain of Serine/threonine-protein kinase pim-1 (P11309 whole entry, looked up): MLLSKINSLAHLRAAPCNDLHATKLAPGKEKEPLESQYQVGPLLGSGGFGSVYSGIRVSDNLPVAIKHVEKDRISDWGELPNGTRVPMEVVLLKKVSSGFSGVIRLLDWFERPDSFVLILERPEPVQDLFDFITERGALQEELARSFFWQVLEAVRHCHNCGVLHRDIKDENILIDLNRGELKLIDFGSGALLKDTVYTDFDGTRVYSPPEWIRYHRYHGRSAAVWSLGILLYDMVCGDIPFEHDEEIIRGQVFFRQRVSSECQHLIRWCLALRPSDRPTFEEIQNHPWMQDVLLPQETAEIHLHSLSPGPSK

`Cc1cc([C@@H](C)Nc2ccccc2C(=O)O)c2nc(N3CCOCC3)cc(=O)n2c1` [AZD-6482] showed a % of control in experiment [1] of 95%.

In experiment [2], `CCN(CC)CCCCNc1ncc2cc(-c3cc(OC)cc(OC)c3)c(NC(=O)NC(C)(C)C)nc2n1` showed a % of control of 100%.

On to `Nc1cnc(N2CCc3cc(S(=O)(=O)Nc4c(F)cc(Cl)cc4F)cc(N4CCCC4=O)c32)nc1` [TP-020n], for which, in experiment [3], the % of control came out at 100%.

For the compound `CCC(=O)N1CCN(c2ccc(-n3c(=O)ccc4cnc5ccc(-c6cnc7ccccc7c6)cc5c43)cc2C(F)(F)F)CC1`, the % of control in [4] is 80%; in [5], 84%.

The compound `COc1cc(Nc2nc(C)cc(-c3cnn4nc(OC)ccc34)n2)cc(C(F)(F)F)c1` displayed a % of control in experiment [6] of 70%.

Consider `Cc1cc(CN)cc(C)c1-c1ncn(C)c1-c1cncn1C`, for which, in [7], the dTagg was 0.8 K.

With `O=C(NOC[C@H](O)CO)c1ccc(F)c(F)c1Nc1ccc(I)cc1F`, in [8], the % of control was determined as 100%.

As for `CNC(=O)Nc1ccc(-c2nc(N3CC4CCC(C3)O4)c3cnn(C4CCC5(CC4)OCCO5)c3n2)cc1`, the % of inhibition in [9] stood at 2%; in experiment [10], 2%; in experiment [11] it was 4%.

Turning to `CC[C@@H]1[C@H](F)C(=O)N[C@@H]1COc1nccc2cc(C(N)=O)c(OC)cc12` [ZIMLOVISERTIB], the % of inhibition in experiment [12] worked out at 2.07%; in experiment [13] (at 0.01 µM) it was 8.7%; in [13] (at 0.04 µM) it was 3.4%; in [13] (at 0.2 µM), 5%; in experiment [13] (at 1 µM), 5.9%; in [13] (at 5 µM) it was 34.9%.

For the compound `N#Cc1cccc(-c2c[nH]c3ncnc(N4CCOCC4)c23)c1`, the % of inhibition in experiment [14] was -3%.

As for `C=CC(=O)Nc1ccc(C(=O)Nc2[nH]nc3c2CN(C(=O)N[C@H](CN(C)C)c2ccccc2)C3(C)C)cc1`, the % of engagement in experiment [15] is -8.9%; in experiment [16] it was -7.3%.

Take `O[C@H]1CC[C@H](Nc2ncc3nc(Nc4c(F)cc(F)cc4F)n([C@H]4CCOC4)c3n2)CC1`: the % of control in experiment [17] and in experiment [18] was 100% in each case.
